# Values of other authors as cited in paper PMC11761228, “Cinnamic Acid Compounds (p-Coumaric, Ferulic, and p-Methoxycinnamic Acid) as Effective Antibacterial Agents Against Colistin-Resistant Acinetobacter baumannii” (Antibiotics, 2025).
# Tests used:
# [1] = system: A. baumannii strains; details: three A. baumannii isolates; cited from earlier work
# [2] = system: Streptococcus pneumoniae; set-up: method as in ref 35 (Lou et al., 2012); details: ref 35 (Lou et al., 2012); cited from earlier work
# [3] = system: Shigella dysenteriae; details: ref 35 (Lou et al., 2012); cited from earlier work
# [4] = system: HUVEC-originated ECV304 cells; details: ref 72 (Kong et al.); cited from earlier work
# [5] = system: Salmonella enteritidis; set-up: method as in ref 29 (Nakazono et al., 2006); details: ref 29 (Nakazono et al., 2006); cited from earlier work
smiles,measurement,setting,value
"COc1cc(/C=C/C(=O)O)ccc1O [FA, ferulic acid]",MIC,[1],12.5 µg/mL
"O=C(O)/C=C/c1ccc(O)cc1 [p-CA, p-coumaric acid]",MIC,[2],10 µg/mL
same,MIC,[3],20 µg/mL
same,Concentration shown to induce cytotoxicity,[4],5000 µM
same,Concentrations with no significant effects on the cell viability,[4],≤ 2500 µM
"COc1ccc(C=CC(=O)O)cc1 [p-MCA, p-methoxycinnamic acid]",MIC,[5],60 µg/mL
